EP2535049A1 (Proyecto de Biomedicina Cima, S.L., priority 2011, dated 2012)
“Also recorded” adds a separate entry of the source.

Key:
J20 mouse model of AD = assay: Morris water maze in J20 mouse model of AD; format: in vivo, mice; conditions: for escape latencies in the hidden platform phase: 4-week treatment, 15 mg/kg/day orally, 20 month old J20 mice, data not shown; for MWM performance, escape latencies in the invisible platform phase / percentage of time spent in the right quadrant (memory retention): 10 weeks of treatment; for MWM performance, escape latencies in the invisible platform phase: 15 mg/Kg orally once daily, 21-22 month-old J20 mice, vs saline; for percentage of time spent in the right quadrant (memory retention): platform removed, days 7 and 9, 15 mg/Kg, J20 mice, randomness = 25%
Method: Transgenic mice overexpressing human amyloid precursor protein (hAPP) with the Swedish (K670N/M671L) and Indiana (V717F) familial AD mutations under control of the PDGF β-chain promoter were used (J20 line) (Mucke et al, 2000). The mice were on an inbred C57BL/6J genetic background. […] Results were compared with those obtained from age-matched negative littermates (controls). To test the effect of the PDE5 inhibitors in cognition capacity related to aging, a second treatment was carried out using 10-12 month-old non-transgenic (wild type) mice on an inbred C57/B6xSJL genetic background. […] The MWM test was used to evaluate spatial memory as previously described (Hsiao et al., 1996; Reed et al., 2010; Ricobaraza et al., 2009). After treatments, groups of animals underwent spatial reference learning and memory testing in the MWM. The water maze was a circular pool (diameter 1.2 m) filled with water maintained at 20 °C and made opaque by the addition of non-toxic white paint. Mice were trained for three consecutive days (8 trials/day) swimming to a raised platform (visible-platform). No distal visible cues were present during this phase. The same platform location was used for all visible-platform sessions and was changed for the invisible-platform training (submerged 1 cm beneath the surface) conducted over […] (4 trials/day) with all visible distal cues present in this phase. In both visible- and hidden-platform versions, mice were placed pseudo-randomly in selected locations, facing toward the wall of the pool to eliminate the potentially confounding contribution of extramaze spatial cues. Each trial was terminated when the mouse reached the platform or after 60 seconds, whichever came first. To test the retention, three probe trials were performed at the beginning of 4th, 7th, and the last day of the test (day 9). In the probe trials the platform was removed from the pool, and the percentage of time spent in the quadrant where the platform was previously set was recorded. All trials were monitored by a camera above the center of the pool connected to a SMART-LD program (Panlab S.L., Barcelona, Spain) for subsequent analysis of escape latencies, swimming speed, path length and percent time spent in each quadrant of the pool during probe trials. All experimental procedures were performed blind to groups.

[1] = test system: aged wild type animals (C57/b6xSJL); assay: Fear conditioning test in aged wild type animals; format: in vivo, mice; conditions: 5-weeks treatment, 15 mg/Kg orally, aged (12-14-month-old) wild type animals, 24h and 7 days after training, vs saline
Method: Results were compared with those obtained from age-matched negative littermates (controls). […] After running the MWM, all the animals were trained in the fear conditioning test. The conditioning procedure was carried out in a StartFear system (Panlab S.L.) that allows recording and analysis of the signal generated by the animal movement through a high sensitivity Weight Transducer system. The analogical signal is transmitted to the FREEZING and […] software modules through the load cell unit for recording purposes and posterior analysis in terms of activity/immobility. The conditioning box is housed inside a soundproof chamber, which minimized external stimulation during the conditioning and retention tests. The box was provided with a house light that supplied dim illumination and with a floor grid through which foot shocks could be administered. On training day, the mice were placed in the conditioning chamber for 2 minutes before the onset of a tone at 2800 Hz, 85 dB (conditioned stimulus, CS), which lasted for 30 seconds. The last 2 seconds of the CS was paired with a 0.3 mA foot shock (unconditioned stimulus, US). Thirty seconds after the paired CS-US, mice were returned to their cage. […] Freezing behavior was defined as the lack of movement except for breathing for at least 2 seconds, and was analyzed to give the percentage time freezing during exposure to the chamber. […]

[2] = Kulkarni and Patil 2004; Forgue et al., 2006; cited from earlier work

Compound	escape latencies in the hidden platform phase (J20 mouse model of AD)	MWM performance, escape latencies in the invisible platform phase (J20 mouse model of AD; 15 mg/kg)	percentage of time spent in the right quadrant (memory retention) (J20 mouse model of AD)	learning ability and memory retention in the FC test [1]	half-life in blood serum [2] [h]	MWM performance, escape latencies in the invisible platform phase (J20 mouse model of AD)
CN1CC(=O)N2[C@H](c3ccc4c(c3)OCO4)c3[nH]c4ccccc4c3C[C@@H]2C1=O [tadalafil, (6R-trans)-6-(1,3-benzodioxol-5-yl)-2,3,6,7,12,12a-hexahydro-2-methyl-pyrazino [1',2':1,6] pyrido [3,4-b]indole-1,4-dione]	no significant differences were detected	even better than those of non-transgenic mice; also recorded: cognitive improvement was higher in the group of tadalafil than in the group of sildenafil; also recorded: markedly improves the performance	higher than 25%	significant enhancement of memory; also recorded: improved learning ability and memory retention	18	–
CCCc1nn(C)c2c(=O)[nH]c(-c3cc(S(=O)(=O)N4CCN(C)CC4)ccc3OCC)nc12 [sildenafil]	no significant differences were detected	–	higher than 25%	significant enhancement of memory; also recorded: only observed in the FC test (24h after training)	3.4	markedly improves the performance
